From patent US7115611B2, “Phenyl derivatives, their manufacture and use as pharmaceutical agents” (Hoffmann-la Roche Inc., priority 2003, dated 2006)

How the values were obtained:
PPARα = target: T1, PPARα (Homo sapiens, UniProt Q07869); experiment: PPARα receptor radioligand binding assay (SPA); conditions: GST-PPARα-LBD fusion protein on SPA beads
T1 construct: PPARα (aa 167 to 469); made in house; host or cells: E. coli BL21 (pLysS)
T1 sequence (Q07869 167-468 limits assumed): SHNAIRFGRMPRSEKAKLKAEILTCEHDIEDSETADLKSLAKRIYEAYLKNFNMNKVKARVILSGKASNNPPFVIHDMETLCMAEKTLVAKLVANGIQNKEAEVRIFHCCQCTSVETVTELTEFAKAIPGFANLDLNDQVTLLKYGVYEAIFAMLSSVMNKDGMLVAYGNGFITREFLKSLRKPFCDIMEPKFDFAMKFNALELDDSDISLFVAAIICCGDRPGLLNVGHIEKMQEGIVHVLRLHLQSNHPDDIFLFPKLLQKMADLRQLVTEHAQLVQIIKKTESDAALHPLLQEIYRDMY
Description: (§1) Background information on the performed assays can be found in: Nichols J S et al. “Development of a scintillation proximity assay for peroxisome proliferator-activated receptor gamma ligand binding domain”, (1998) Anal. Biochem. 257:112–119.
(§2) Full-length cDNA clones for humans PPARδ and PPARα and mouse PPARγ were obtained by RT-PCR from human adipose and mouse liver cRNA, respectively, cloned into plasmid vectors and verified by DNA sequencing. Bacterial and mammalian expression vectors were constructed to produce glutathione-s-transferase (GST) and Gal4 DNA binding domain proteins fused to the ligand binding domains (LBD) of PPARδ (aa 139 to 442), PPARγ (aa 174 to 476) and PPARα (aa 167 to 469). To accomplish this, the portions of the cloned sequences encoding the LBDs were amplified from the full-length clones by PCR and then subcloned into the plasmid vectors. Final clones were verified by DNA sequence analysis.
(§3) Induction, expression, and purification of GST-LBD fusion proteins were performed in E. coli strain BL21 (pLysS) cells by standard methods (Ref: Current Protocols in Molecular Biology, Wiley Press, edited by Ausubel et al.).
(§4) PPARα receptor binding was assayed in TKE50 (50 mM Tris-HCl, pH 8, 50 mM KCl, 2 mM EDTA, 0.1 mg/ml fatty acid-free BSA and 10 mM DTT). For each 96 well reaction an 140 ng equivalent of GST-PPARα-LBD fusion protein was bound to 10 μg SPA beads (PharmaciaAmersham) in a final volume of 50 μl by shaking. The resulting slurry was incubated for 1 h at RT and centrifuged for 2 min at 1300 g. The supernatant containing unbound protein was removed and the semidry pellet containing the receptor-coated beads was resolved in 50 μl of TKE. […] All binding assays were performed in 96 well plates and the amount of bound ligand measured on a Packard TopCount using OptiPlates (Packard). Nonspecific binding was determined in the presence of 10^−4 M unlabelled compound. […]

PPARγ = target: T2, PPARγ (Mus musculus, UniProt P37238); experiment: PPARγ receptor radioligand binding assay (SPA); conditions: GST-PPARγ-LBD fusion protein on SPA beads
T2 construct: PPARγ (aa 174 to 476); made in house; host or cells: E. coli BL21 (pLysS)
T2 sequence (P37238 174-475 isoform P37238-2): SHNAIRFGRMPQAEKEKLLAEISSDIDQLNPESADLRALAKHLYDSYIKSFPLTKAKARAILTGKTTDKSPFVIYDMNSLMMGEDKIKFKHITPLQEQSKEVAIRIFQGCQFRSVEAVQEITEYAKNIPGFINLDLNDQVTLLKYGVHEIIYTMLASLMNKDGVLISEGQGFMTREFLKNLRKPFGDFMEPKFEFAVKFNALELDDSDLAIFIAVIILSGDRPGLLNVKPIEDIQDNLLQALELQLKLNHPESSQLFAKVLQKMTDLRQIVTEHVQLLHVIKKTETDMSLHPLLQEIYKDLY
Description: as §1, §2, §3
as §4, with “PPARγ receptor” for “PPARα receptor”, “reaction a” for “reaction an”, “of GST-PPARγ-LBD” for “of GST-PPARα-LBD”, “50 ul” for “50 μl”, “at 1300g.” for “at 1300 g.”

PPARδ = target: T3, PPARδ (Homo sapiens, UniProt Q03181); experiment: PPARδ receptor radioligand binding assay (SPA); conditions: GST-PPARδ-LBD fusion protein on SPA beads
T3 construct: PPARδ (aa 139 to 442); made in house; host or cells: E. coli BL21 (pLysS)
T3 sequence (Q03181 139-441 limits assumed): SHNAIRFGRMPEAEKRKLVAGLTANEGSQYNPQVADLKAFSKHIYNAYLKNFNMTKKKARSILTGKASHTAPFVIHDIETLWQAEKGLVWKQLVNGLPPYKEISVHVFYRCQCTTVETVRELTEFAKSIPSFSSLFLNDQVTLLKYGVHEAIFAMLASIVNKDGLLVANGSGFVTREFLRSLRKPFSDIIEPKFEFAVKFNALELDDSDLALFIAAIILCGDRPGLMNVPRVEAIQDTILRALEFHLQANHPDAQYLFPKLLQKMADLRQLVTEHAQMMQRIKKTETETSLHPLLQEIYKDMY
Description: as §1, §2, §3
PPARδ receptor binding was assayed in HNM10 (50 mM Hepes, pH 7.4, 10 mM NaCl, 5 mM MgCl2, 0.15 mg/ml fatty acid-free BSA and 15 mM DTT). For each 96 well reaction a 500 ng equivalent of GST-PPARδ-LBD fusion protein and radioligand, e.g. 20000 dpm {2-methyl-4-[4-methyl-2-(4-trifluoromethyl-phenyl)-thiazol-5-yl-ditritiomethylsulfanyl]-phenoxy}-acetic acid, was bound to 10 μg SPA beads (PharmaciaAmersham) in a final volume of 50 μl by shaking. The resulting slurry was incubated for 1 h at RT and centrifuged for 2 min at 1300 g. […] Radioligand was added and the reaction incubated at RT for 1 h and scintillation proximity counting performed in the presence of test compounds was determined. All binding assays were performed in 96 well plates and the amount of bound ligand was measured on a Packard TopCount using OptiPlates (Packard). […]

IC50 (PPARα) | IC50 (PPARγ) | IC50 (PPARδ) | melting point | Compound
289 nM | > 10000 nM | 31 nM |  | Cc1cc(N(C)Cc2cnc(-c3ccc(C(F)(F)F)cc3)nc2C2CC2)ccc1OCC(=O)O [Example 27, (4-{[4-Cyclopropyl-2-(4-trifluoromethyl-phenyl)-pyrimidin-5-ylmethyl]-methyl-amino}-2-methyl-phenoxy)-acetic acid]
 |  |  | 170 to 171 °C | Cc1cc(OCc2ccc(-c3ccc(C(F)(F)F)cc3)nc2C2CC2)ccc1OC(C)(C)C(=O)O [Example 40, 2-{4-[2-Cyclopropyl-6-(4-trifluoromethyl-phenyl)-pyridin-3-ylmethoxy]-2-methyl-phenoxy}-2-methyl-propionic acid]

The remaining lines, values behind:

Compound | IC50 (PPARα) | IC50 (PPARγ) | IC50 (PPARδ) | melting point
Cc1cc(OCc2ccc(-c3cccc(C(F)(F)F)c3)nc2C)ccc1OC(C)(C)C(=O)O [Example 8, 2-Methyl-2-{2-methyl-4-[2-methyl-6-(3-trifluoromethyl-phenyl)-pyridin-3-ylmethoxy]-phenoxy}-propionic acid] | 13 nM | > 10000 nM | 26 nM | 105 to 107 °C
Cc1cc(OC(C)c2ccc(-c3ccc(C(F)(F)F)cc3)nc2C)ccc1SCC(=O)O (racemic) [Example 20, [rac]-(2-Methyl-4-{1-[2-methyl-6-(4-trifluoromethyl-phenyl)-pyridin-3-yl]-ethoxy}-phenylsulfanyl)-acetic acid] | 454 nM | > 10000 nM | 2 nM | 
Cc1cc(OCc2ccc(-c3ccc(C(F)(F)F)cc3)nc2C)ccc1OC(C)(C)C(=O)O [Example 34, 2-Methyl-2-{2-methyl-4-[2-methyl-6-(4-trifluoromethyl-phenyl)-pyridin-3-ylmethoxy]-phenoxy}-propionic acid] |  |  |  | 164 to 165 °C
CCOCCc1nc(-c2ccc(C(F)(F)F)nc2)ncc1COc1ccc(OC(C)(C)C(=O)O)c(C)c1 [Example 101, 2-{4-[4-(2-Ethoxy-ethyl)-2-(6-trifluoromethyl-pyridin-3-yl)-pyrimidin-5-ylmethoxy]-2-methyl-phenoxy}-2-methyl-propionic acid] |  |  |  | 122 to 124 °C (dec.)
